This assay concerns the target PAR4 (Homo sapiens (Human), UniProt Q96RI0). Briefly: FLIPR assay in PAR4-expressing HEK293 cells (calcium mobilization). Type of assay: cell-based. To be noted: PAR4 antagonist activity, FLIPR assay as described in Example A.
Chain of PAR4 (Q96RI0 18-385): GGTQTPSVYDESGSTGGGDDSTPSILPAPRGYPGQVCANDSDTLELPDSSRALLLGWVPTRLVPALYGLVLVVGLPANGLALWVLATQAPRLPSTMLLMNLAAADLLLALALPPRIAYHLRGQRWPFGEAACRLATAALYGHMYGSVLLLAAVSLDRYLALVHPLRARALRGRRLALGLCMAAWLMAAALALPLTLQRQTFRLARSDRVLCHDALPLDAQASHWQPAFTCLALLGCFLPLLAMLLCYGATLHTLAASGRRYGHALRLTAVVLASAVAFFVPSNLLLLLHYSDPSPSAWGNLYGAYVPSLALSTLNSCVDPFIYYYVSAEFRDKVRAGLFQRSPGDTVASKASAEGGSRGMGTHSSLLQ
One may read the IC50 as the concentration needed to halve the response being measured. On to `COc1cc(OCc2cccc(-c3ncccn3)c2)c2cc(-c3cn4nc(OC)sc4n3)oc2c1` [Example 3, 2-Methoxy-6-(6-methoxy-4-((3-(pyrimidin-2-yl)benzyl)oxy)benzofuran-2-yl)imidazo[2,1-b][1,3,4]thiadiazole], for which the IC50 was found to be 3.08 nM.
The same measure for `COc1cc(OCc2cccc(-c3cc4ccccc4s3)c2)c2cc(-c3cn4nc(OC)sc4n3)oc2c1` [Example 4]: 9.35 nM; for `COc1cc(OCc2cccc(-c3c(C)noc3C)c2)c2cc(-c3cn4nc(OC)sc4n3)oc2c1` [Example 5]: 2.36 nM; for `COc1cc(OCc2cccc(-c3ccc(F)nc3)c2)c2cc(-c3cn4nc(OC)sc4n3)oc2c1` [Example 7]: 1.29 nM.
The result for `COc1ccc(-c2cccc(COc3cc(OC)cc4oc(-c5cn6nc(OC)sc6n5)cc34)c2)c(C)c1` [Example 8] reads 1.69 nM; that for `COc1cc(OCc2cccc(-c3ccsc3)c2)c2cc(-c3cn4nc(OC)sc4n3)oc2c1` [Example 9], 1.26 nM; that for `COc1cc(OCc2cccc(-c3cnn(C)c3)c2)c2cc(-c3cn4nc(OC)sc4n3)oc2c1` [Example 10], 3.55 nM.
The result for `COc1cc(OCc2cccc(-c3csc(C)n3)c2)c2cc(-c3cn4nc(OC)sc4n3)oc2c1` [Example 11] reads 3.66 nM; that for `COc1cc(OCc2cccc(-c3csc4ccccc34)c2)c2cc(-c3cn4nc(OC)sc4n3)oc2c1` [Example 12], 3.76 nM.
Consider `COc1cc(OCc2cccc(-c3ccc(F)cn3)c2)c2cc(-c3cn4nc(OC)sc4n3)oc2c1` [Example 14], for which the IC50 was determined as 1.53 nM.
Consider `COc1cc(OCc2cccc(-c3cccnc3)c2)c2cc(-c3cn4nc(OC)sc4n3)oc2c1` [Example 15], for which the IC50 turned out to be 6.4 nM.
The result for `COc1cc(OCc2cccc(-c3ccc(F)cc3F)c2)c2cc(-c3cn4nc(OC)sc4n3)oc2c1` [Example 17] reads 3.78 nM; that for `COc1cc(OCc2cccc(-c3cnc(OC)nc3OC)c2)c2cc(-c3cn4nc(OC)sc4n3)oc2c1` [Example 19], 2.42 nM.
The result for `COc1cc(OCc2cccc(-c3ccc4nsnc4c3)c2)c2cc(-c3cn4nc(OC)sc4n3)oc2c1` [Example 20] reads 8.54 nM.
Turning to `COc1cc(OCc2cccc(-c3cnc4ccccn34)c2)c2cc(-c3cn4nc(OC)sc4n3)oc2c1` [Example 21], the IC50 worked out at 7.34 nM.
The result for `COc1cc(OCc2cccc(-c3ccc4nncn4c3)c2)c2cc(-c3cn4nc(OC)sc4n3)oc2c1` [Example 22] reads 23.6 nM; that for `COc1cc(OCc2cccc(-c3ccc(C)cn3)c2)c2cc(-c3cn4nc(OC)sc4n3)oc2c1` [Example 25], 2.04 nM.
The result for `COc1cc(OCc2cccc(-c3ccnc(C)c3)c2)c2cc(-c3cn4nc(OC)sc4n3)oc2c1` [Example 27] reads 4.29 nM.
The result for `COc1cc(OCc2cccc(-c3ncc(F)cc3F)c2)c2cc(-c3cn4nc(OC)sc4n3)oc2c1` [Example 33] reads 0.67 nM; that for `COc1cc(OCc2cccc(-c3ccc(Cl)cn3)c2)c2cc(-c3cn4nc(OC)sc4n3)oc2c1` [Example 36], 0.38 nM.
In the case of `CCCOc1ncc(-c2cccc(COc3cc(OC)cc4oc(-c5cn6nc(OC)sc6n5)cc34)c2)cn1` [Example 37], the IC50 worked out at 0.36 nM.
Consider `COc1cc(OCc2cccc(-c3cnc(F)c(C)c3)c2)c2cc(-c3cn4nc(OC)sc4n3)oc2c1` [Example 38], for which the IC50 was found to be 0.68 nM.
The result for `COc1cc(OCc2cccc(-c3ccc(C)nc3F)c2)c2cc(-c3cn4nc(OC)sc4n3)oc2c1` [Example 39] reads 0.53 nM; that for `COc1cc(OCc2cccc(-c3coc(C(N)=O)c3)c2)c2cc(-c3cn4nc(OC)sc4n3)oc2c1` [Example 41], 8.68 nM.
The result for `COc1cc(OCc2cccc(-c3cnc(C#N)cn3)c2)c2cc(-c3cn4nc(OC)sc4n3)oc2c1` [Example 42] reads 1.05 nM.
The same measure for `COc1cc(OCc2cccc(-c3ncccc3F)c2)c2cc(-c3cn4nc(OC)sc4n3)oc2c1` [Example 44]: 1.21 nM; for `COc1cc(OCc2cccc(-c3cccnc3F)c2)c2cc(-c3cn4nc(OC)sc4n3)oc2c1` [Example 45]: 1.03 nM; for `COc1cc(OCc2cccc(-c3ncccc3C#N)c2)c2cc(-c3cn4nc(OC)sc4n3)oc2c1` [Example 46]: 1.64 nM.
For `COc1cc(OCc2cccc(-c3ncc(Cl)cc3F)c2)c2cc(-c3cn4nc(OC)sc4n3)oc2c1` [Example 50], the concentration for half-maximal inhibition (IC50) was 1.88 nM.
The same measure for `COc1cc(OCc2cccc(-c3cnc(OC)cc3C)c2)c2cc(-c3cn4nc(OC)sc4n3)oc2c1` [Example 51]: 1.19 nM.
The same measure for `COc1cc(OCc2cccc(-c3ncc(Cl)cc3C)c2)c2cc(-c3cn4nc(OC)sc4n3)oc2c1` [Example 52]: 0.56 nM.
The same measure for `COc1cc(OCc2cccc(-c3ncc(Cl)cc3Cl)c2)c2cc(-c3cn4nc(OC)sc4n3)oc2c1` [Example 54]: 1.47 nM; for `COc1cc(OCc2cccc(-c3ccnc(F)c3)c2)c2cc(-c3cn4nc(OC)sc4n3)oc2c1` [Example 55]: 0.69 nM.
Take `COc1cc(OCc2cccc(-c3ccc(Cl)nc3)c2)c2cc(-c3cn4nc(OC)sc4n3)oc2c1` [Example 56]: the IC50 is 0.74 nM.
The result for `COc1cc(OCc2cccc(-c3ccc(C(=O)N4CCOCC4)nc3)c2)c2cc(-c3cn4nc(OC)sc4n3)oc2c1` [Example 57] reads 1.66 nM.
The same measure for `COCOc1cnc(-c2cccc(COc3cc(OC)cc4oc(-c5cn6nc(OC)sc6n5)cc34)c2)cn1` [Example 58]: 1.22 nM; for `COc1ccc(COC(C)c2ccc(-c3cccc(COc4cc(OC)cc5oc(-c6cn7nc(OC)sc7n6)cc45)c3)nc2)cc1` (centres unmarked) [Example 61]: 1 nM.
The result for `COc1ccc(-c2cc(F)cc(COc3cc(OC)cc4oc(-c5cn6nc(OC)sc6n5)cc34)c2)nc1` [Example 62, 6-(4-((3-Fluoro-5-(5-methoxypyridin-2-yl)benzyl)oxy)-6-methoxybenzofuran-2-yl)-2-methoxyimidazo[2,1-b][1,3,4]thiadiazole] reads 0.84 nM.
As to `COc1cc(OCc2cncc(-c3ccoc3)c2)c2cc(-c3cn4nc(OC)sc4n3)oc2c1` [Example 65, 6-(4-((5-(Furan-3-yl)pyridin-3-yl)methoxy)-6-methoxybenzofuran-2-yl)-2-methoxyimidazo[2,1-b][1,3,4]thiadiazole], the IC50 stood at 1.08 nM.
The result for `COc1cc(COc2cc(OC)cc3oc(-c4cn5nc(OC)sc5n4)cc23)cc(-c2ccc(Cl)nc2)c1` [Example 66, 6-(4-((3-(6-Chloropyridin-3-yl)-5-methoxybenzyl)oxy)-6-methoxybenzofuran-2-yl)-2-methoxyimidazo[2,1b][1,3,4]thiadiazole] reads 0.57 nM.
In the case of `COc1cc(OCc2cccc(-c3ccc(F)cn3)c2)c2cc(-c3cn4nc(C(C)(F)F)sc4n3)oc2c1` [Example 67], the IC50 came out at 4.54 nM.
For the compound `COc1cc(OCc2cc(F)cc(-c3ncc(F)cc3F)c2)c2cc(-c3cn4nc(OC)sc4n3)oc2c1` [Example 70], the IC50 was 1.48 nM.
The same measure for `COc1cc(OCc2cncc(-c3ccccc3)c2)c2cc(-c3cn4nc(OC)sc4n3)oc2c1` [Example 72]: 7.19 nM; for `COc1ccc(-c2cncc(COc3cc(OC)cc4oc(-c5cn6nc(OC)sc6n5)cc34)c2)cc1` [Example 73]: 2.18 nM; for `COc1cc(OCc2cncc(-c3ccc(Cl)nc3)c2)c2cc(-c3cn4nc(OC)sc4n3)oc2c1` [Example 74]: 1.57 nM.
The result for `COc1cc(OCc2cncc(-c3cnc(OC)nc3)c2)c2cc(-c3cn4nc(OC)sc4n3)oc2c1` [Example 75] reads 2.14 nM.
The result for `COc1cc(OCc2cccc(-c3ccc(Cl)nc3)n2)c2cc(-c3cn4nc(OC)sc4n3)oc2c1` [Example 76] reads 6.66 nM; that for `COc1cc(OCc2cccc(-c3cnc(OC)nc3)n2)c2cc(-c3cn4nc(OC)sc4n3)oc2c1` [Example 77], 2.18 nM; that for `COc1ccc(-c2cccc(COc3cc(OC)cc4oc(-c5cn6nc(OC)sc6n5)cc34)n2)cc1` [Example 78], 0.95 nM.
As for `CSc1nn2cc(-c3nc4c(OCc5ccccc5-c5ccccc5)cccc4o3)nc2s1` [Example 80], the IC50 turned out to be 3130 nM.
Take `COc1cc(OCc2cccc(-c3cnc(OC)nc3)c2)c2cc(-c3cn4nc(C)ccc4n3)oc2c1` [Example 82, 2-(6-Methoxy-4-((3-(2-methoxypyrimidin-5-yl)benzyl)oxy)benzofuran-2-yl)-6-methylimidazo[1,2-b]pyridazine]: the IC50 was determined as 1.32 nM.
The result for `COc1cc(OCc2cc(F)cc(-c3cnc(OC)nc3)c2)c2cc(-c3cn4nc(OC)sc4n3)oc2c1` [Example 83, 6-(4-((3-Fluoro-5-(2-methoxypyrimidin-5-yl)benzyl)oxy)-6-methoxybenzofuran-2-yl)-2-methoxyimidazo[2,1-b][1,3,4]thiadiazole] reads 0.39 nM; that for `COc1cc(OCc2cccc(-c3ccc(C(=O)O)nc3)c2)c2cc(-c3cn4nc(OC)sc4n3)oc2c1` [Example 84, 5-(3-(((6-Methoxy-2-(2-methoxyimidazo[2,1-b][1,3,4]thiadiazol-6-yl)benzofuran-4-yl)oxy)methyl)phenyl)picolinic acid], 65 nM.
For `COCCN(C)C(=O)c1ccc(-c2cccc(COc3cc(OC)cc4oc(-c5cn6nc(OC)sc6n5)cc34)c2)cn1` [Example 85, 5-(3-(((6-Methoxy-2-(2-methoxyimidazo[2,1-b][1,3,4]thiadiazol-6-yl)benzofuran-4-yl)oxy)methyl)phenyl)-N-(2-methoxyethyl)-N-methylpicolinamide], the IC50 is 1.49 nM.
The result for `COc1cc(OCc2cccc(-c3ccc(C(C)OC4CCCCO4)cn3)c2)c2cc(-c3cn4nc(OC)sc4n3)oc2c1` (centres unmarked) [Example 86, 2-Methoxy-6-(6-methoxy-4-((3-(5-(1-((tetrahydro-2H-pyran-2-yl)oxy)ethyl)pyridin-2-yl)benzyl)oxy)benzofuran-2-yl)imidazo[2,1-b][1,3,4]thiadiazole] reads 0.56 nM; that for `COc1cc(OCc2cccc(-c3ccc(C(C)O)cn3)c2)c2cc(-c3cn4nc(OC)sc4n3)oc2c1` (centres unmarked) [Example 87, 1-(6-(3-(((6-Methoxy-2-(2-methoxyimidazo[2,1-b][1,3,4]thiadiazol-6-yl)benzofuran-4-yl)oxy)methyl)phenyl)pyridin-3-yl)ethanol], 1.11 nM.

The values are drawn from patent publication US9518064B2, “Imidazothiadiazole and imidazopyridazine derivatives as protease activated receptor 4 (PAR4) inhibitors for treating platelet aggregation” (BRISTOL-MYERS SQUIBB COMPANY, priority 2012, dated 2016).
